Data from US9481639B2, “Substituted tetracycline compounds for treatment of inflammatory skin disorders” (Paratek Pharmaceuticals, Inc., priority 2006, dated 2016).
Converted amounts (≈) assume the structure as drawn. Read-outs that look alike come from different tables or passages of the source.

Tests used:
[1] = test system: carrageenan induced rat paw inflammation; experiment: Rat carrageenan-induced paw edema inflammatory model; type: in vivo; conditions: for 50% effective concentration (EC50), carrageenan induced paw inflammation: IP 30 minutes before carrageenan, paw volume 3 hours after
Description: The model used a sub-plantar injection of carrageenan in the rat to induce an inflammatory response. The test compound or saline (control) was administered IP 30 minutes before a subplantar injection of carrageenan (1.5 mg/0.1 mL). Paw volume was measured […] before subplantar injection and again 3 hours after the injection of carrageenan using a plethysmometer. Significant differences as determined by a Kruskal-Wallis One Way ANOVA are noted between the inflammation of the untreated controls versus treated animals […]

[2] = test system: B. thetaiotaomicron ATCC 29741; experiment: Antibacterial MIC, CLSI broth microdilution; type: cell-based
Description: (§1) Gram (−) and gram (+) antibacterial minimum inhibitory concentration (MIC) values (μg/mL) were obtained using CLSI methodology for anti-bacterial susceptibility testing. On each day of testing, serial dilutions of compounds were prepared in microdilution plates using a Tecan robotic workstation. Mueller Hinton broth cultures of representative sensitive and resistant gram negative strains were grown or adjusted to match the turbidity of a 0.5 McFarland standard. 1:200 dilutions were made in an appropriate broth (cation supplemented Mueller Hinton broth) to allow a final inoculum of 1×10^5 cfu. Plates were incubated at 35° C. in ambient air for 18-24 hours, were read spectrophotometrically and checked manually for evidence of bacterial growth. The lowest dilution of compound that inhibited growth was recorded as the MIC. Lysed horse blood was used to supplement broth for testing S. pneumoniae. The MIC's for each compound were assessed against S. aureus, S. pneumoniae, P. acnes, E. coli and B. theta.

S. aureus RN450 [3] = experiment: In vivo anti-bacterial activity, S. aureus lethal infection model; conditions: Staphylococcus aureus, sc, mice; for responders at 5 mg/kg: lethal IP S. aureus RN450, single subcutaneous dose 5 mg/kg, survival at 24 hours, read-out: Percent Survival
Description: Groups of five mice were injected intraperitoneally with a lethal dose of S. aureus RN450 in a medium of mucin. Mice were evaluated at 24 hours to determine survival. […] In some instances, a dose response study was performed with the compound such that a PD50 (a dose of compound that protects 50% of the animals) could be calculated.

in vitro = type: cell-based
Description: Mammalian cell cytotoxicity was assessed to evaluate potential in vivo risks associated with the tetracycline compounds of the invention. A soluble, non-toxic redox dye (“Resazurin”; Alamar Blue) was used to assess a tetracycline compound's effect on cellular metabolism. At the onset of the experiment, cultures of mammalian COS-1 or CHO cells were washed, trypsinized, and harvested. […] On the next day, serial dilutions of test drug were prepared under sterile conditions and transferred to cell plates. Plates were then incubated under the above conditions for 24 hours. Following the incubation period, the media/drug was aspirated, and 50 μL of resazurin was added. Plates were then incubated under the above conditions for 2 hours and then in the dark at room temperature for an additional 30 minutes. Fluorescence measurements were taken (excitation 535 nm, emission 590 nm) and toxic effects in treated versus control cells were compared based on the degree of fluorescence in each well.

S. aureus RN450 [4] = experiment: Antibacterial MIC, CLSI broth microdilution; type: cell-based; conditions: Staphylococcus aureus, 35° C., 18-24 hours
Description: as §1

P. acnes ATCC 11827 = experiment: Antibacterial MIC, CLSI broth microdilution; type: cell-based; conditions: Cutibacterium acnes, ATCC11827
Description: as §1

[5] = test system: S. pneumoniae 157E - Strep; experiment: Antibacterial MIC, CLSI broth microdilution; type: cell-based; conditions: Streptococcus pneumoniae, 157ESTREP; broth supplemented with lysed horse blood
Description: as §1

P. acnes ATCC 6919 = experiment: Antibacterial MIC, CLSI broth microdilution; type: cell-based; conditions: Cutibacterium acnes, ATCC6919
Description: as §1

E. coli MG. 1655 = experiment: Antibacterial MIC, CLSI broth microdilution; type: cell-based; conditions: Escherichia coli, 35° C., 18-24 hours
Description: as §1

E. coli ATCC 25922 = experiment: Antibacterial MIC, CLSI broth microdilution; type: cell-based; conditions: Escherichia coli, ATCC25922; 35° C., 18-24 hours
Description: as §1

[6] = Bacteroides thetaiotaomicron, ATCC29741, read-out: MIC B. thetaiotaomicron ATCC 29741
[7] = Bacteroides thetaiotaomicron, ATCC29741; read-out: MIC B. thetaiotaomicron ATCC 29741

Structure (SMILES): C[C@H]1c2cccc(O)c2C(=O)C2=C(O)[C@]3(O)C(=O)C(C(N)=O)=C(O)[C@@H](N(C)C)[C@@H]3[C@@H](O)[C@@H]21 [Doxycycline, reference compound]
- 50% effective concentration (EC50), carrageenan induced paw inflammation [1]: approximately 50 mg/kg
- MIC [2, 6]: 4 to 8 µg/mL (≈ 9 to 18 µM)

Structure (SMILES): CCO/N=C(/C)c1ccc(O)c2c1CC1CC3[C@H](N(C)C)C(O)=C(C(N)=O)C(=O)[C@@]3(O)C(O)=C1C2=O (some centres unmarked) [Compound A]
- responders at 5 mg/kg (S. aureus RN450 [3]): 100%
- IC50 at 24 h (in vitro; African green monkey): < 35 µg/mL
- IC50 at 24 h (in vitro; Chinese hamster): < 35 µg/mL
- modulation of carrageenan induced inflammation compared with reference tetracycline ([1]; IP, various doses, A vs doxycycline (FIG. 1), P vs minocycline (FIG. 2)): improved activity
- MIC (S. aureus RN450 [4]): < 4 µg/mL
- MIC [2, 7]: > 8 µg/mL
- MIC (P. acnes ATCC 11827): < 4 µg/mL
- MIC [5]: < 4 µg/mL
- MIC (P. acnes ATCC 6919): < 4 µg/mL
- MIC (E. coli MG. 1655): 4 to 8 µg/mL (≈ 8.01 to 16 µM)
- MIC (E. coli ATCC 25922): < 4 µg/mL

Structure (SMILES): CN(C)c1ccc(O)c2c1C[C@H]1C[C@H]3[C@H](N(C)C)C(O)=C(C(N)=O)C(=O)[C@@]3(O)C(O)=C1C2=O [Minocycline, reference compound]
- 50% effective concentration (EC50), carrageenan induced paw inflammation [1]: approximately 50 mg/kg
- MIC [2, 6]: 4 to 8 µg/mL (≈ 8.74 to 17.5 µM)

Structure (SMILES): CC(=NOC(C)(C)C)c1cc(N)c(O)c2c1C[C@H]1C[C@H]3[C@H](N(C)C)C(O)=C(C(N)=O)C(=O)[C@@]3(O)C(O)=C1C2=O [Compound Q, (4S,4aS,5aR,12aS)-9-Amino-7-(1-tert-butoxyimino-ethyl)-4-dimethylamino-3,10,12,12a-tetrahydroxy-1,11-dioxo-1,4,4a,5,5a,6,11,12a-octahydro-naphthacene-2-carboxylic acid amide]
- responders at 5 mg/kg (S. aureus RN450 [3]): 100%
- ED50 (S. aureus RN450 [3]; lethal IP S. aureus RN450, subcutaneous, 24 hours, read-out: PD50 (dose that protects 50% of the animals)): 0.45 mg/kg
- IC50 at 24 h (in vitro; African green monkey): < 35 µg/mL
- IC50 at 24 h (in vitro; Chinese hamster): < 35 µg/mL
- MIC (S. aureus RN450 [4]): < 4 µg/mL
- MIC [2, 7]: 4 to 8 µg/mL (≈ 7.37 to 14.7 µM)
- MIC (P. acnes ATCC 11827): < 4 µg/mL
- MIC [5]: < 4 µg/mL
- MIC (P. acnes ATCC 6919): < 4 µg/mL
- MIC (E. coli MG. 1655): 4 to 8 µg/mL (≈ 7.37 to 14.7 µM)
- MIC (E. coli ATCC 25922): 4 to 8 µg/mL (≈ 7.37 to 14.7 µM)
